# Measurements published in patent US11111264B2, “Morphic forms of 4-amino-7-(3,4-dihydroxy-5-(hydroxymethyl)tetrahydrofuran-2-yl)-2-methyl-7H-pyrrolo[2,3-d]pyrimidine-5-carboxamide and uses thereof” (Chimerix, Inc., priority 2017, dated 2021).
# Legend:
# Type in all cases: physicochemical
# [1] = Dynamic vapor sorption (DVS); conditions: 25° C.; for crystal form after DVS (PXRD): 50% to 0% to 95% to 50% relative humidity; for hygroscopicity (from DVS): mass as a function of relative humidity
# Text: FIG. 20A is a DVS diagram of a sample of Compound 1, Form A as a function of time and the applied change in relative humidity. Line A represents the relative weight of the sample at each relative humidity. Line B represents the applied relative humidity (i.e., the applied measurement program). FIG. 20B is a DVS diagram of a sample of Compound 1, Form A as a function of the applied relative humidity. FIG. 20A and FIG. 20B were obtained using a Sorptions Prufsystem ProUmid system using a scan rate of 5% relative humidity per hour at a temperature of 25° C.
# DVS measurements were performed with an SPS11-100n “Sorptions Prufsystem” of Projekt Messtechnik”, D-89077 Ulm (Germany). About 20 to 100 mg of sample were put into an aluminum sample pan. Humidity change rates of 5% per hour were used. The applied measurement program is visualized in the figures.
# [2] = Thermodynamic stability: stirring a mixture of Forms A-G in solvent/water, PXRD; conditions: for PXRD after stirring mixture of Forms A, B, C, D, E, F and G: four days at room temperature
# Text: A mixture of Compound 1, Forms A, B, C, D, E, F and G was stirred in DMF/water 1:1 v/v (water activity about 0.79).
# A mixture of Compound 1, Forms A, B, C, D, E, F and G was stirred in methanol/water 95:5 v/v (water activity about 0.18).
# [3] = Suspension equilibration of Compound 1, Form A in organic solvents
# Description: Compound 1, Form A was stirred in methanol at room temperature for six days. […] At least 90% of Form A was still present.
# Additionally, Compound 1, Form A was stirred in acetonitrile at a temperature ranging between 52° C. and 75° C. for five days.
Compound,crystal form after DVS (PXRD) [1],hygroscopicity (from DVS) [1],"PXRD after stirring mixture of Forms A, B, C, D, E, F and G ([2]; DMF/water 1:1 v/v (water activity about 0.79))",relative thermodynamic stability among the seven morphic forms ([2]; conclusion from both slurry experiments),"PXRD after stirring mixture of Forms A, B, C, D, E, F and G ([2]; methanol/water 95:5 v/v (water activity about 0.18))",resulting crystalline material (PXRD) ([3]; stirred in acetonitrile between 52° C. and 75° C. for five days),Form A still present (PXRD) ([3]; stirred in methanol at room temperature for six days),"desorption of water (DVS) ([1]; 0% R.H., 5% relative humidity per hour)"
"Cc1nc(N)c2c(C(N)=O)cn([C@@H]3O[C@H](CO)[C@@H](O)[C@H]3O)c2n1 [Form D, 4-amino-7-((2R,3R,4S,5R)-3,4-dihydroxy-5-(hydroxymethyl)tetrahydrofuran-2-yl)-2-methyl-7H-pyrrolo[2,3-d]pyrimidine-5-carboxamide]",remained as Form D,hygroscopic,–,–,–,–,–,–
"Cc1nc(N)c2c(C(N)=O)cn([C@@H]3O[C@H](CO)[C@@H](O)[C@H]3O)c2n1 [Form B, 4-amino-7-((2R,3R,4S,5R)-3,4-dihydroxy-5-(hydroxymethyl)tetrahydrofuran-2-yl)-2-methyl-7H-pyrrolo[2,3-d]pyrimidine-5-carboxamide]",transform in to Form A,hygroscopic,–,–,–,–,–,–
"Cc1nc(N)c2c(C(N)=O)cn([C@@H]3O[C@H](CO)[C@@H](O)[C@H]3O)c2n1 [Form A, 4-amino-7-((2R,3R,4S,5R)-3,4-dihydroxy-5-(hydroxymethyl)tetrahydrofuran-2-yl)-2-methyl-7H-pyrrolo[2,3-d]pyrimidine-5-carboxamide]",same pattern as the sample before DVS,non-hygroscopic,only the peaks of crystal form A,most thermodynamically stable,only the peaks of crystal form A,"PXRD pattern similar to Compound 1, Form D",At least 90%,≤ 0.1 % m/m
"Cc1nc(N)c2c(C(N)=O)cn([C@@H]3O[C@H](CO)[C@@H](O)[C@H]3O)c2n1 [Form E, 4-amino-7-((2R,3R,4S,5R)-3,4-dihydroxy-5-(hydroxymethyl)tetrahydrofuran-2-yl)-2-methyl-7H-pyrrolo[2,3-d]pyrimidine-5-carboxamide]",transformed into Form A,hygroscopic,–,–,–,–,–,–
